According to patent EP4268824A1 (Manros Therapeutics, priority 2022, dated 2023):

How the values were obtained:
F508del-CFTR = molecular target: T1, F508del-CFTR (Homo sapiens, UniProt P13569, DEL508-508); assay: CFTR activation assay: short-circuit current measurements (Ussing chamber) in CFBE cells treated 24 h with CFTR modulator(s) plus compound; type: cell-based; details: for F508del-CFTR activity ('inhibition shift' induced by CFTR-172) in reference to the CFTR activity induced by Trikafta® alone (value=100): substance with R1 = [drawing 9], CFBE cells, with Trikafta®; for F508del-CFTR activity as percentage of F508del-CFTR activity in the presence of Trikafta alone (100%): CFE cells, with Trikafta
T1 construct: expressed in transfected cells; host or cells: CFBE41o- cells (CFBE F508del-CFTR), puromycin-selected
Description: • FIG 1. represents the conductance measurement as a function of time for assessing the activity of F508del-CFTR in CFBE cells using the Ussing chamber as set forth in example 13. Cells are incubated for 24 hours with either Trikafta® alone or Trikafta® + a compound of formula (I) as defined herein after. Conductance is measured as a function of time. […] This is the measure which are reported in all Tables shown below. • FIG 2. The correcting effect of Trikafta® on F508del-CFTR in a pulmonary epithelial cell line derived from a F508del-CFTR CF patient was tested as set forth in example 13 herein after in the presence of increasing concentrations of compound (44) as defined herein after and compound (107) as defined herein after. Dose-response curves were built from the activation and inhibition data (see FIG. 1). 100% represents the activity of Trikafta® alone. • FIG 3. […] CFE cells were treated with Trikafta® 100%, 33%, or 11%, in the absence or presence of 1 µM of compound (107). F508del-CFTR activity was monitored as described in the Experimental section and above. Activity is reported as percentage of δF508del-CFTR activity in the presence of Trikafta® alone (100%). The fold change over the activity of Trikafta® alone is indicated in parentheses. • FIG 4. The correcting effect of further CFTR modulators than Trikafta®, i.e. Galapagos compounds as defined herein after (GLPG 222 (G1), GLPG 1837 (G2), GLPG 2451 (G3)) (1 µM each) on F508del-CFTR in a pulmonary epithelial cell line derived from a F508del-CFTR CF patient was tested as set forth in example 13 herein after in the presence of increasing concentrations of compound (107) as defined herein after. Dose-response curves were built from the activation and inhibition data (see FIG. 1). 100% represents the activity of each CFTR modulator alone.
The activity of F508del-CFTR was indeed estimated according to the method described below in example 13. This method makes use of CFBE cells, an immortalized cell line generated from bronchial epithelium of a CF patient homozygous for F508del-CFTR [Kunzelmann, K. et al., 1993. An immortalized cystic fibrosis tracheal epithelial cell line homozygous for the F508del CFTR mutation. Am. J. Respir. Cell Mol. Biol. 8, 522-529.]. Cells are exposed for 24 hours to a combination of Trikafta® and a compound of formula (I) as defined herein after to be evaluated, and the activity of F508del-CFTR is measured by conductance in a Ussing chamber. The activation is initiated by addition of Forskolin (1 µM). […] All compounds tested were evaluated in combination with Trikafta®. In most instances, compounds were tested in triplicates at 0.1, 1 and 10 µM.
Wild-type CFBE cells (containing full-length, unmutated CFTR) are used as a reference.
F508del-CFTR expressing cells used in this present study were treated with CFTR modulators 24 h prior the experiments. The following CFTR modulators were used: Vx770 (Ivacaftor) (Selleckchem, S 1144) (Selleckchem, 24, rue des Tuileries, BP684, 67460 Souffelweyersheim, France), Vx445 (Elexacaftor) (Selleckchem, SE-S8851), Vx661 (Tezacaftor) (TargetMol, HY-15448) (TargetMol, Tebu-bio, 39 rue de Houdan, BP 15, 78612 Le-Perray-en-Yvelines cedex, France). Trikafta® is the combination of 1 µM Vx770, 3 µM Vx 445 and […] Vx661.
CFBE cell line stably expressing F508del-CFTR or WT-CFTR (CFBE WT-CFTR) were grown at 37°C in 5% CO2 - 95% air and media was replaced every 2 days.

CK1γ1 = CK1γ1 (Homo sapiens, UniProt Q9HCP0); assay: Kinase inhibition, dose-response; type: biochemical; details: > 10: no inhibition at 10 µM, the highest dose tested
Description: (§1) All compounds were additionally tested over a range of concentrations for their ability to inhibit a series of 14 kinases. IC50 values were calculated from the dose-response curves and are reported in µM. > 10, no inhibition at 10 µM, the highest dose tested (see table 6 below). [drawing 409] Table 5: CFE cells were treated with Trikafta in the presence of increasing concentrations of various compounds and their N7-methylated counterparts. Their F508del-CFTR activity is reported as percentage of F508del-CFTR activity in the presence of Trikafta alone (100%).

CK1γ3 = CK1γ3 (Homo sapiens, UniProt Q9Y6M4); assay: Kinase inhibition, dose-response; type: biochemical; details: > 10: no inhibition at 10 µM, the highest dose tested
Description: as §1

CDK2 = CDK2 (Homo sapiens, UniProt P24941); assay: Kinase inhibition, dose-response; type: biochemical; details: > 10: no inhibition at 10 µM, the highest dose tested
Description: as §1

CLK1 = CLK1 (Homo sapiens, UniProt P49759); assay: Kinase inhibition, dose-response; type: biochemical; details: > 10: no inhibition at 10 µM, the highest dose tested
Description: as §1

CLK3 = CLK3 (Homo sapiens, UniProt P49761); assay: Kinase inhibition, dose-response; type: biochemical; details: > 10: no inhibition at 10 µM, the highest dose tested
Description: as §1

CDK7 = CDK7 (Homo sapiens, UniProt P50613); assay: Kinase inhibition, dose-response; type: biochemical; details: > 10: no inhibition at 10 µM, the highest dose tested
Description: as §1

CDK9 = CDK9 (Homo sapiens, UniProt P50750); assay: Kinase inhibition, dose-response; type: biochemical; details: > 10: no inhibition at 10 µM, the highest dose tested
Description: as §1

DYRK1A = DYRK1A (Homo sapiens, UniProt Q13627); assay: Kinase inhibition, dose-response; type: biochemical; details: > 10: no inhibition at 10 µM, the highest dose tested
Description: as §1

CK1ε = CK1ε (Homo sapiens, UniProt P49674); assay: Kinase inhibition, dose-response; type: biochemical; details: > 10: no inhibition at 10 µM, the highest dose tested
Description: as §1

CLK2 = CLK2 (Homo sapiens, UniProt P49760); assay: Kinase inhibition, dose-response; type: biochemical; details: > 10: no inhibition at 10 µM, the highest dose tested
Description: as §1

CK1α1 = CK1α1 (Homo sapiens, UniProt P48729); assay: Kinase inhibition, dose-response; type: biochemical; details: > 10: no inhibition at 10 µM, the highest dose tested
Description: as §1

CK1γ2 = CK1γ2 (Homo sapiens, UniProt P78368); assay: Kinase inhibition, dose-response; type: biochemical; details: > 10: no inhibition at 10 µM, the highest dose tested
Description: as §1

CK1δ = CK1δ (Homo sapiens, UniProt P48730); assay: Kinase inhibition, dose-response; type: biochemical; details: > 10: no inhibition at 10 µM, the highest dose tested
Description: as §1

CLK4 = CLK4 (Homo sapiens, UniProt Q9HAZ1); assay: Kinase inhibition, dose-response; type: biochemical; details: read-out: IC50 CLK4; > 10: no inhibition at 10 µM, the highest dose tested
Text: All compounds were additionally tested over a range of concentrations for their ability to inhibit a series of 14 kinases. […] Their F508del-CFTR activity is reported as percentage of F508del-CFTR activity in the presence of Trikafta alone (100%).

LogD determined by HPLC = type: physicochemical

T1 sequence (P13569 with tags, fused parts or gaps DEL508-508): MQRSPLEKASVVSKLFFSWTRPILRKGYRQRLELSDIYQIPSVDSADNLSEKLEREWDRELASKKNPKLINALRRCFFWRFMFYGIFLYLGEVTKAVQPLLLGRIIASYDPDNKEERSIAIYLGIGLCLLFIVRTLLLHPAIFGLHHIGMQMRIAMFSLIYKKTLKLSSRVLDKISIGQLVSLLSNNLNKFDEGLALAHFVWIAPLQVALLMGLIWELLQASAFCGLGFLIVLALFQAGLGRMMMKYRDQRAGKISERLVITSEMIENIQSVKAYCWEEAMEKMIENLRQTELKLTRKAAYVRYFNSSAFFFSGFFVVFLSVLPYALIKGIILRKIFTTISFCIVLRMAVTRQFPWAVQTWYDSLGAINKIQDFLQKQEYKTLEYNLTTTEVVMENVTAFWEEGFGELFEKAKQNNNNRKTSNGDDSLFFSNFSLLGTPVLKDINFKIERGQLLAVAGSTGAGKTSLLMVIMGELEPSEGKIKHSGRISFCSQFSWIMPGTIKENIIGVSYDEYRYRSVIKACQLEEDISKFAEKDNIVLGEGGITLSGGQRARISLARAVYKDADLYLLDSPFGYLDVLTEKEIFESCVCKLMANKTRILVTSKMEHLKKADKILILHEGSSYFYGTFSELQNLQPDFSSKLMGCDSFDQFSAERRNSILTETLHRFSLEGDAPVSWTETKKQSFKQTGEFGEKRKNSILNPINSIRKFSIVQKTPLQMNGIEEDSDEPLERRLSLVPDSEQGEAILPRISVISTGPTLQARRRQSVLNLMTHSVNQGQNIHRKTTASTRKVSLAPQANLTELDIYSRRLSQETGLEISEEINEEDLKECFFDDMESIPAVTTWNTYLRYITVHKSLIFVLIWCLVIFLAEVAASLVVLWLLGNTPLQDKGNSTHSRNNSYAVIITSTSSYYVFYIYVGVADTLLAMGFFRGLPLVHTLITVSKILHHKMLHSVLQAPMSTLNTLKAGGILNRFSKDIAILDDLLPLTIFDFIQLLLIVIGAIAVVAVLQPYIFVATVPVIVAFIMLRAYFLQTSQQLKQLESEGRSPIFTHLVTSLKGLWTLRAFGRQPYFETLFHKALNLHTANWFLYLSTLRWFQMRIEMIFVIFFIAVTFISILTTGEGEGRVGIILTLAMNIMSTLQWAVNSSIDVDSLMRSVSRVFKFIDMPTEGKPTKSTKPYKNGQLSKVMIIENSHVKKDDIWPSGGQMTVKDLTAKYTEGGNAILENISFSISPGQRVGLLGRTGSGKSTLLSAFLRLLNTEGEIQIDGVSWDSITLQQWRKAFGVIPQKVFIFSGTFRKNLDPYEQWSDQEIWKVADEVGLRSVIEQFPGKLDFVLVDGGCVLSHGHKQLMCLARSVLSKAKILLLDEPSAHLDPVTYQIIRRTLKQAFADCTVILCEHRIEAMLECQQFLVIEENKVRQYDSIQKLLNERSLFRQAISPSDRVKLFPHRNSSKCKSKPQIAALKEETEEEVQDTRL
Sequence of CLK1 (P49759 whole entry): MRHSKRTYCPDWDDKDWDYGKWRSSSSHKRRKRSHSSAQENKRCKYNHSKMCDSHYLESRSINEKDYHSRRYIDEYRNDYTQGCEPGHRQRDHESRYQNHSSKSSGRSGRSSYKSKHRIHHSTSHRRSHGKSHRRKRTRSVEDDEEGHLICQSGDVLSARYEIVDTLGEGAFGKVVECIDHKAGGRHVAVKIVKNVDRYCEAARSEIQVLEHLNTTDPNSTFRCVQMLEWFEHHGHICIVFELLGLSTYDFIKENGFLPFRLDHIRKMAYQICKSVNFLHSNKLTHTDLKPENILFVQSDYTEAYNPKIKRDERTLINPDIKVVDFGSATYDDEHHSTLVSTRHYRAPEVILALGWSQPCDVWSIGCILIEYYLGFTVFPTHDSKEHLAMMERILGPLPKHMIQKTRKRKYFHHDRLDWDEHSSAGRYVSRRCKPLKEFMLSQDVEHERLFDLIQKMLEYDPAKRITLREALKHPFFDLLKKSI
Sequence of CK1γ1 (Q9HCP0 whole entry): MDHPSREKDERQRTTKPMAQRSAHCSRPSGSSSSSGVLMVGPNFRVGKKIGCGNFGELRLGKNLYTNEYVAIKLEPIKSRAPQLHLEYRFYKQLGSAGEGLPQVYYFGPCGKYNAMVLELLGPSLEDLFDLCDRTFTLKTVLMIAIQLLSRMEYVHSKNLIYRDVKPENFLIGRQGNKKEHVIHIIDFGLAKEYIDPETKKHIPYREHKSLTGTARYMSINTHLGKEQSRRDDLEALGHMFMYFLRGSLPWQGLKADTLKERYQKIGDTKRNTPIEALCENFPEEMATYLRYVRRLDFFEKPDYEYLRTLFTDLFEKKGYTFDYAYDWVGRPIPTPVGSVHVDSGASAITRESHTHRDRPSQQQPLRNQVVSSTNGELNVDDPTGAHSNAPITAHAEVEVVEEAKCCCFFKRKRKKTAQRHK
Sequence of CK1ε (P49674 whole entry): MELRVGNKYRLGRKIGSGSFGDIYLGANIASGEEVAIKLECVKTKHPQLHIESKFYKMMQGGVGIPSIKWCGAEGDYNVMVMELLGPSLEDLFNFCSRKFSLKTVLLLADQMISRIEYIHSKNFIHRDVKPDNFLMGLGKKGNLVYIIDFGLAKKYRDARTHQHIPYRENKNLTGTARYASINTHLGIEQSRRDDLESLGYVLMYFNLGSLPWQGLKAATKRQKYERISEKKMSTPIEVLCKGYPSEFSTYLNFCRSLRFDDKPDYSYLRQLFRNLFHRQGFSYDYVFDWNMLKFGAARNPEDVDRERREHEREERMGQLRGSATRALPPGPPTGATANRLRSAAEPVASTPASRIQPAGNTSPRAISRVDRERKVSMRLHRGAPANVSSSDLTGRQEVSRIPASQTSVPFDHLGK
Sequence of CK1γ2 (P78368 whole entry): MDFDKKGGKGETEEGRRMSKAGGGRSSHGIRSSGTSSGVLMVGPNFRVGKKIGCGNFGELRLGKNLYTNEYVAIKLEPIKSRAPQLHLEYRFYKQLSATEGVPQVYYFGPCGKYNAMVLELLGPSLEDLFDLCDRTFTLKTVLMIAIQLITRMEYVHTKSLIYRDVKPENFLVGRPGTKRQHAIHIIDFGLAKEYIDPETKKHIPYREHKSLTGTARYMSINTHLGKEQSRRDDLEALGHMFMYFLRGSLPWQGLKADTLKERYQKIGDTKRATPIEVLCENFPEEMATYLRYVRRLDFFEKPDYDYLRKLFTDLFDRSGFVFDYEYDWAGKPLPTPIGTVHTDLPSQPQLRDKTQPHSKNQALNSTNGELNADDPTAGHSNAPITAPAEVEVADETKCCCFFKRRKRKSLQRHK
Sequence of CDK9 (P50750 whole entry, species assumed): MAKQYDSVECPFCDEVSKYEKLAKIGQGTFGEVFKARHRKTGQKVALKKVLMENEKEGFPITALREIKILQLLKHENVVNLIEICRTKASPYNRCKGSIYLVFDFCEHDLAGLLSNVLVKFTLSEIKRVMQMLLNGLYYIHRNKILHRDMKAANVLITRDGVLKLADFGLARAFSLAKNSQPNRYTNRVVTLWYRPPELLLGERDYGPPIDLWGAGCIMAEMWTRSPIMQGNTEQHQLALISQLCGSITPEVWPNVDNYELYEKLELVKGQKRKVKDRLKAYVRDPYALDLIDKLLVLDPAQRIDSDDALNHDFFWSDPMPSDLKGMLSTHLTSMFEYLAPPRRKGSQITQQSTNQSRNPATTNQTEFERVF
Sequence of CDK9 (O60563 whole entry partner, species assumed): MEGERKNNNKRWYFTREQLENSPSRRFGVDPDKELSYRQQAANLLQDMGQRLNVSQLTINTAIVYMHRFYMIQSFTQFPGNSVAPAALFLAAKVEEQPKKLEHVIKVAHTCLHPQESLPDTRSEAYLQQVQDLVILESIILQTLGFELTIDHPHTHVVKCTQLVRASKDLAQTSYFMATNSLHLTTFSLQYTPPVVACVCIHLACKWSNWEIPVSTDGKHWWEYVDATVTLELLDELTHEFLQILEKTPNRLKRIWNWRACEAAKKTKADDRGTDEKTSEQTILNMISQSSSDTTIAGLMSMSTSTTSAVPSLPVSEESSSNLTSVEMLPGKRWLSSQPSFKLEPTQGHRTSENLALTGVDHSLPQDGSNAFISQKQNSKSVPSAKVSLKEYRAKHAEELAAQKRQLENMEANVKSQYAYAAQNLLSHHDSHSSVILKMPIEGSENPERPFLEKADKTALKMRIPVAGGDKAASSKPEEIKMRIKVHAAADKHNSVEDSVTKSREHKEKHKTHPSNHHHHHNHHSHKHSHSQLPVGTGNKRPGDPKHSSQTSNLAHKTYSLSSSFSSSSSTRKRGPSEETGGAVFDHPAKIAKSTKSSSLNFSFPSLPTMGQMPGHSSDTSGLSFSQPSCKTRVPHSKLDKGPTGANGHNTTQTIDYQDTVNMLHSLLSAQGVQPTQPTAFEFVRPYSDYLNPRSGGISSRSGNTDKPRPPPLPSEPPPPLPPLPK
Sequence of CLK4 (Q9HAZ1 whole entry, species assumed): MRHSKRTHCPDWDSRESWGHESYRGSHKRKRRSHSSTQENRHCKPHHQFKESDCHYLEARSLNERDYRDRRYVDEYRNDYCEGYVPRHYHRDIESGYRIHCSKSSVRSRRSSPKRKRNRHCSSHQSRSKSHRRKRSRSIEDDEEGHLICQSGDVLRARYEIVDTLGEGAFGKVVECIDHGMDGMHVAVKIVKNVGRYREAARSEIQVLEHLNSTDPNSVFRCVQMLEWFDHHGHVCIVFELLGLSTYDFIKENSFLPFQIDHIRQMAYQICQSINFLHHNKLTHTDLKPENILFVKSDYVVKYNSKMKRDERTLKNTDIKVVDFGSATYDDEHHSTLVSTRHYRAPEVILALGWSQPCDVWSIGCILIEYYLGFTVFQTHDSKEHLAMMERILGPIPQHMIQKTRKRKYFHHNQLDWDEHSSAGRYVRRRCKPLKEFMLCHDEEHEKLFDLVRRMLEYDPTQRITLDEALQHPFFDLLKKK

CC(C)n1cnc2c(NCc3ccccc3)cc(N[C@@H]3CCOC3)nc21 [(A), reference compound]
F508del-CFTR activity ('inhibition shift' induced by CFTR-172) in reference to the CFTR activity induced by Trikafta® alone (value=100) (F508del-CFTR; C 0.1 µM): 82.7
F508del-CFTR activity ('inhibition shift' induced by CFTR-172) in reference to the CFTR activity induced by Trikafta® alone (value=100) (F508del-CFTR; C 1 µM): 107.8
F508del-CFTR activity ('inhibition shift' induced by CFTR-172) in reference to the CFTR activity induced by Trikafta® alone (value=100) (F508del-CFTR; C 10 µM): 114.5

CC(C)c1cnc2c(N(C)Cc3ccccc3)nc(NC3CCOCC3)nn12 [compound 49]
IC50 (CK1γ1): > 10 µM
IC50 (CK1γ3): > 10 µM
IC50 (CDK2): > 10 µM
IC50 (CLK1): > 10 µM
IC50 (CLK3): > 10 µM
IC50 (CDK7): > 10 µM
IC50 (CDK9): > 10 µM
IC50 (DYRK1A): > 10 µM
IC50 (CK1ε): > 10 µM
IC50 (CLK2): > 10 µM
IC50 (CK1α1): > 10 µM
IC50 (CK1γ2): > 10 µM
IC50 (CK1δ): > 10 µM
F508del-CFTR activity as percentage of F508del-CFTR activity in the presence of Trikafta alone (100%) (F508del-CFTR; concentration 0.1 µM): 113.0%
F508del-CFTR activity as percentage of F508del-CFTR activity in the presence of Trikafta alone (100%) (F508del-CFTR; concentration 1 µM): 125.9%
F508del-CFTR activity as percentage of F508del-CFTR activity in the presence of Trikafta alone (100%) (F508del-CFTR; concentration 10 µM): 147.1%
IC50 (CLK4): > 10 µM

CC(C)c1cnn2c(NCc3ccccc3)nc(N[C@@H]3CCOC3)nc12 [(C), reference compound]
F508del-CFTR activity ('inhibition shift' induced by CFTR-172) in reference to the CFTR activity induced by Trikafta® alone (value=100) (F508del-CFTR; C 0.1 µM): 109.7
F508del-CFTR activity ('inhibition shift' induced by CFTR-172) in reference to the CFTR activity induced by Trikafta® alone (value=100) (F508del-CFTR; C 1 µM): 99.5
F508del-CFTR activity ('inhibition shift' induced by CFTR-172) in reference to the CFTR activity induced by Trikafta® alone (value=100) (F508del-CFTR; C 10 µM): 116.1

CC(C)c1cnc2c(N(C)Cc3ccccc3)nc(N[C@@H]3CCOC3)nn12 [compound 32]
IC50 (CK1γ1): > 10 µM
IC50 (CK1γ3): > 10 µM
IC50 (CDK2): > 10 µM
IC50 (CLK1): > 10 µM
IC50 (CLK3): > 10 µM
IC50 (CDK7): > 10 µM
IC50 (CDK9): > 10 µM
IC50 (DYRK1A): > 10 µM
IC50 (CK1ε): > 10 µM
IC50 (CLK2): > 10 µM
IC50 (CK1α1): > 10 µM
IC50 (CK1γ2): > 10 µM
IC50 (CK1δ): > 10 µM
F508del-CFTR activity as percentage of F508del-CFTR activity in the presence of Trikafta alone (100%) (F508del-CFTR; concentration 0.1 µM): 117.9%
F508del-CFTR activity as percentage of F508del-CFTR activity in the presence of Trikafta alone (100%) (F508del-CFTR; concentration 1 µM): 113.7%
F508del-CFTR activity as percentage of F508del-CFTR activity in the presence of Trikafta alone (100%) (F508del-CFTR; concentration 10 µM): 135.1%
IC50 (CLK4): > 10 µM

CC(C)c1cnc2c(NCc3ccccc3)nc(Nc3ccnn3C)nn12 [compound 107, N4-Benzyl-7-isopropyl-N2-(2-methylpyrazol-3-yl)imidazo[2,1-f][1,2,4]triazine-2,4-diamine]
F508del-CFTR activation with diluted Trikafta® (F508del-CFTR; Trikafta® 100%, 33% or 11%, absence or presence of 1 µM compound, FIG 3): compensates the dilution of Trikafta®
chromatographic logD (LogD determined by HPLC): 2.98

CC(C)c1cnc2c(NCc3ccccc3)nc(NC3CCC(F)(F)CC3)nn12 [compound 60, N4-Benzyl-N2-(4,4-difluorocyclohexyl)-7-isopropyl-imidazo[2,1-f][1,2,4]triazine-2,4-diamine]
chromatographic logD (LogD determined by HPLC): 4.57
